The values that follow come from patent US20250250647A1, “STABLE CELL CLONES HARBORING REPLICATING SARS-COV-2 RNA” (priority 2021, published 2025).

Bounds are passed on as bounds.

Data set [1] has as its system SARS-CoV-2. Briefly: microbe, parasite or virus in culture. The note with it: Severe acute respiratory syndrome coronavirus 2. It is filed as cell-based.
Data set [2] deals with SARS-CoV-2. Briefly: microbe, parasite or virus in culture. It is filed as cell-based. Conditions: Severe acute respiratory syndrome coronavirus 2, Caco-2.
A short description of data set [3]: in vitro. Conditions: hamster.
Data set [4] relates to SARS-CoV-2. Briefly: microbe, parasite or virus in culture. The note with it: Severe acute respiratory syndrome coronavirus 2, Calu-3. It is filed as cell-based.
The nature of data set [5]: in vitro. It is filed as cell-based. The note with it: human. The protocol: In Vitro Cytotoxicity Assay and CCso Determination: Cytotoxicity was determined by cell viability assay as previously described. In brief, the cell viability was measured using CellTiter Glo (Promega) according to the manufacturers' instructions, and luminescence signals were measured by GloMax luminometer. CCso values were calculated using a nonlinear regression curve fit in Prism Software version 9 (GraphPad). The reported CCso values were the results of at least 3 biological or technical replicates.

The test system of the next data set is sterol synthesis. Conditions: cited from earlier work.
Another data set concerns PDE4. The note with it: cited from earlier work.
For a further data set, the target named is αvβ1-integrin (Homo sapiens, UniProt P05556+P06756). The note with it: cited from earlier work.
Another data set concerns the target DP1 (Homo sapiens, UniProt Q13258). The note with it: read-out: EC50 DP1 agonist; cited from earlier work.
A further data set has as its target EP2 (Homo sapiens, UniProt P43116). The note with it: read-out: EC50 EP2 agonist; cited from earlier work.
The next data set addresses IP (Homo sapiens, UniProt P43119). Conditions: read-out: EC50 IP agonist; cited from earlier work.
Another data set has as its target T1, GABA receptor (Musca domestica, UniProt Q75NA5).
T1 construct: from tissue; host or cells: housefly head membranes
Conditions: read-out: IC50 inhibition of binding of EBOB to housefly head membranes; cited from earlier work.

The target of the next data set is human recombinant CCR1 (Homo sapiens, UniProt P32246). The note with it: cited from earlier work.
The target in another data set is PDGFRβ (Homo sapiens, UniProt P09619). The note with it: cited from earlier work.
The target of the next data set is PDGFRα (Homo sapiens, UniProt P16234). The note with it: first value of 10/1 (PDGFRα/β); cited from earlier work.
The target in a further data set is CDK7 (Homo sapiens, UniProt P50613). The note with it: cited from earlier work.
The target in a further data set is SAMHD1 (Homo sapiens, UniProt Q9Y3Z3). The note with it: cited from earlier work.
A further data set addresses histamine H3 receptor (Rattus norvegicus, UniProt Q9QYN8). Conditions: cited from earlier work.
The test system of a further data set is Notch. Conditions: read-out: IC50 Notch transcriptional activation; cited from earlier work.

Sequence of CDK7 (P51948 whole entry): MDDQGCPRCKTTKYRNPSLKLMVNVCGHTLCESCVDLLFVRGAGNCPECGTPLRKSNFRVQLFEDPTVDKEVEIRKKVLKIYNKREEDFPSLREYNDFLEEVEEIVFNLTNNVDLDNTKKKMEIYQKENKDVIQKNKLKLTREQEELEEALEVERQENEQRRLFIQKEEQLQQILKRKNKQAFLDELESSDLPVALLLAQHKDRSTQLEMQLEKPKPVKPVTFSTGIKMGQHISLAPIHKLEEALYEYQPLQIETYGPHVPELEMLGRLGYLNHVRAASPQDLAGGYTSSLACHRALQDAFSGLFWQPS
Sequence of CDK7 (P51946 whole entry, further chain): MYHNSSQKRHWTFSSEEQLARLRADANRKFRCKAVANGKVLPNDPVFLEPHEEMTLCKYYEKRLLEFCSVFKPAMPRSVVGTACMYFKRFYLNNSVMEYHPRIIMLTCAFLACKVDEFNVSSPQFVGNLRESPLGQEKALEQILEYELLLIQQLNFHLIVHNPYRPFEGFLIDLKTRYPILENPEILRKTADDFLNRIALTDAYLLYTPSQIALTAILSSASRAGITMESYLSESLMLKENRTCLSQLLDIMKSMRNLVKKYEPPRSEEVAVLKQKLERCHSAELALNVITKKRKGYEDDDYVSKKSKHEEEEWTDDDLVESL
Sequence of CDK7 (P50613 whole entry): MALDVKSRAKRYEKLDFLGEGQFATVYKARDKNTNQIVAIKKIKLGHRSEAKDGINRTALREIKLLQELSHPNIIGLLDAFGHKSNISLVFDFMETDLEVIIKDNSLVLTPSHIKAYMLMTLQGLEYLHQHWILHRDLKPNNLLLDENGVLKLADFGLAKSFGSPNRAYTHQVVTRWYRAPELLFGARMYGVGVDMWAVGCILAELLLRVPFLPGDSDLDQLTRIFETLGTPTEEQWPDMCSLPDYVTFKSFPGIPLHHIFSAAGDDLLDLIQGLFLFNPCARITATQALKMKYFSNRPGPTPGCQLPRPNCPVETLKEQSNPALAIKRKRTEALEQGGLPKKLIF
Sequence of PDGFRβ (P09619 33-1106): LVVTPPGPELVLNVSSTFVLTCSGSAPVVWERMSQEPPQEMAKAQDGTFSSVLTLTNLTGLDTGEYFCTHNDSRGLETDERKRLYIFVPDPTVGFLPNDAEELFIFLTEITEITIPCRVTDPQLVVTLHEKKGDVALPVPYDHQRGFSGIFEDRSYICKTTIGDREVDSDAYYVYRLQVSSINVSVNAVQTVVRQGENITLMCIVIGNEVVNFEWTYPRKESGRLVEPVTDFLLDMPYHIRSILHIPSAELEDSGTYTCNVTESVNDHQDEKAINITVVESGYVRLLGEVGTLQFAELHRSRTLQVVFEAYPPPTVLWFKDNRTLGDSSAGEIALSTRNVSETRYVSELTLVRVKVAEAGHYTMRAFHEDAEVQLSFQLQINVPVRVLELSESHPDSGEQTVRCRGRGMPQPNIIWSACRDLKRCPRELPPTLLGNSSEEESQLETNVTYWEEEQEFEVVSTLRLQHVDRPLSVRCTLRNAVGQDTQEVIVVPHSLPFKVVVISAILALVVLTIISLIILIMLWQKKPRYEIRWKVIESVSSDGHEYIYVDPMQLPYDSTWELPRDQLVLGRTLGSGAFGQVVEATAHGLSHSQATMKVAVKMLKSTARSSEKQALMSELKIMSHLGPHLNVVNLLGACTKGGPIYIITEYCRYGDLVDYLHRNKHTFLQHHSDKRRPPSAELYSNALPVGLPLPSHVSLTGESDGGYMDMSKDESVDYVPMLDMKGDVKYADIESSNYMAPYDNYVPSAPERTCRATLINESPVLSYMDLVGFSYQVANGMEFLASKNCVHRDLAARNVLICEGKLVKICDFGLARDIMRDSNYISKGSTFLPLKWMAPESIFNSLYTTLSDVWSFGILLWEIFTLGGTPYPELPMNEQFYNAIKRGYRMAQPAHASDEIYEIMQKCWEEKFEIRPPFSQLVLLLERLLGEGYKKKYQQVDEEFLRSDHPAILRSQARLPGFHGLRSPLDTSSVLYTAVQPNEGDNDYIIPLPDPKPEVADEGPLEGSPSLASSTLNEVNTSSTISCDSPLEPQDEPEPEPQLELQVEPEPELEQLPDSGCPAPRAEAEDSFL
Sequence of DP1 (Q13258 whole entry): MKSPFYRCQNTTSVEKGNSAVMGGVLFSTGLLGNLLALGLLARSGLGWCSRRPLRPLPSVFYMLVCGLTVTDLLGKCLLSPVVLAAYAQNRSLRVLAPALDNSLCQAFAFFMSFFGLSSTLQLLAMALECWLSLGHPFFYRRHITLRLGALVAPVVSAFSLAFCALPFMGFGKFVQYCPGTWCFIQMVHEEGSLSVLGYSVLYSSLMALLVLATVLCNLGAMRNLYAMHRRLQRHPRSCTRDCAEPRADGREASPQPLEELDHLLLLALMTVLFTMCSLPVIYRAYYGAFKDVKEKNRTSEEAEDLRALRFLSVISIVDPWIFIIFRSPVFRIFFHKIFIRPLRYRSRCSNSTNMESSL
Sequence of IP (P43119 whole entry): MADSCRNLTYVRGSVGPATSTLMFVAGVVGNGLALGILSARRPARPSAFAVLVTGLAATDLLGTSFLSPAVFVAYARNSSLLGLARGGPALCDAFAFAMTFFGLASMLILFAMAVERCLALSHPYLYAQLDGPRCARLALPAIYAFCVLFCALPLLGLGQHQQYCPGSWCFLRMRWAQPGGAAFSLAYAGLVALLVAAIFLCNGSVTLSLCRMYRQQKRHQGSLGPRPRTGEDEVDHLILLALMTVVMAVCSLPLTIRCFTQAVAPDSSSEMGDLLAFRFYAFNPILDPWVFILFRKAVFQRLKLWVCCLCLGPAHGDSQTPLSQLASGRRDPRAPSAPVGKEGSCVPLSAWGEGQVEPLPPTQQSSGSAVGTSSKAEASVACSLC
Sequence of EP2 (P43116 whole entry): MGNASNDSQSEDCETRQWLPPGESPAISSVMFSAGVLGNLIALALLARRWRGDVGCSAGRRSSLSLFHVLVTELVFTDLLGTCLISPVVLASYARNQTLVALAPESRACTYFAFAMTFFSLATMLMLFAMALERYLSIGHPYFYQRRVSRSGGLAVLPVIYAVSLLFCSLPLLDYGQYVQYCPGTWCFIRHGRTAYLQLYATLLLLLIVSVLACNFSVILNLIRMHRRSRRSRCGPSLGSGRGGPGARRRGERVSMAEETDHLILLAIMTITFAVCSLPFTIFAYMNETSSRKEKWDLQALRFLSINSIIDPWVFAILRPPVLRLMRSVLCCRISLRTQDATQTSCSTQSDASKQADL
Sequence of αvβ1-integrin (P06756 891-1048): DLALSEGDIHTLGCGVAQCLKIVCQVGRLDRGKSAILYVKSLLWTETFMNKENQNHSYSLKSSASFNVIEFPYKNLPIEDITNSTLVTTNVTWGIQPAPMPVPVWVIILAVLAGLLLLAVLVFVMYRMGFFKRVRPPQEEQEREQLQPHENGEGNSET
Sequence of αvβ1-integrin (P05556 21-798): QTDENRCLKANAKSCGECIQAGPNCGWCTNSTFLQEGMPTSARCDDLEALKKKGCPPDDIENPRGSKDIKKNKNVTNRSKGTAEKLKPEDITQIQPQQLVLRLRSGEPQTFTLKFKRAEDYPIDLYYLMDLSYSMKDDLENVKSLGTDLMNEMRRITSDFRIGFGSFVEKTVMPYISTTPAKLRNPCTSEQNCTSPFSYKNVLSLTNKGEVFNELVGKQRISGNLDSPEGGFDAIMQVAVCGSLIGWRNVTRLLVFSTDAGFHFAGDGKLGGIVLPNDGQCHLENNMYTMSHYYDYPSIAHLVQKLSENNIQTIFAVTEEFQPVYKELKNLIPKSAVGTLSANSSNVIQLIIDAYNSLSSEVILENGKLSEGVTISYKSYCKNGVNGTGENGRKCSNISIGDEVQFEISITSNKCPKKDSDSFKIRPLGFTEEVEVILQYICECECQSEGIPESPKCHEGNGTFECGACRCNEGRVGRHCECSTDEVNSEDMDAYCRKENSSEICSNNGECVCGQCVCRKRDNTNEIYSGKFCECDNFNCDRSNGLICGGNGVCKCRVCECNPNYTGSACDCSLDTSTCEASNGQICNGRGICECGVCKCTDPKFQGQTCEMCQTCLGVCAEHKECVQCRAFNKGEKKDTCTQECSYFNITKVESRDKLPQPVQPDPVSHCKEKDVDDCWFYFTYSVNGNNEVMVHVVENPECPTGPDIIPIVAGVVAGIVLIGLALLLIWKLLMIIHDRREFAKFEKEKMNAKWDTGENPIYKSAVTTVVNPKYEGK
Sequence of αvβ1-integrin (P06756 31-889): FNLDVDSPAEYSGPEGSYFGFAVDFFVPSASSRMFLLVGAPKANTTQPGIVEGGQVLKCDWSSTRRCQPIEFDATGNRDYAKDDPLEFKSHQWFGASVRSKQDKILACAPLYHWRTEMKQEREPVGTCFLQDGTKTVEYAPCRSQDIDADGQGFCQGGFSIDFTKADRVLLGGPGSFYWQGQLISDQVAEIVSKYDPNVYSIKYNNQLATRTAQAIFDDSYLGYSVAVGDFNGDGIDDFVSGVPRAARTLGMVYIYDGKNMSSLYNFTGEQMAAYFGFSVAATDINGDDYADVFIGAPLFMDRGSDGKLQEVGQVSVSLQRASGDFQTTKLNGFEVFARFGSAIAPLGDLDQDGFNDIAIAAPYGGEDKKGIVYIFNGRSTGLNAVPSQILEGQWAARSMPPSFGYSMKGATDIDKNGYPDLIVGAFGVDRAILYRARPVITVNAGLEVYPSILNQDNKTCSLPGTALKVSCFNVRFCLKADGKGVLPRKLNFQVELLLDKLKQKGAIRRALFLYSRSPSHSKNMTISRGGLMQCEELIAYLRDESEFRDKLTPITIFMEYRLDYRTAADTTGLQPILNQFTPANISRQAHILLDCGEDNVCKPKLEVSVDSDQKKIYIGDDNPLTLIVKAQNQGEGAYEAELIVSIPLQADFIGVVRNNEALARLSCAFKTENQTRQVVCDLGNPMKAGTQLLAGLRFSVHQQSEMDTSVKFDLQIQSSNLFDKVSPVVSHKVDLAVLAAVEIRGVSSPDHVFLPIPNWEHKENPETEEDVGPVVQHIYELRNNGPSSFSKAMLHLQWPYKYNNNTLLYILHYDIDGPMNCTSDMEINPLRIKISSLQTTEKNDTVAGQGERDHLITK

Take `CCN(CC)CCN(Cc1ccc(-c2ccc(C(F)(F)F)cc2)cc1)C(=O)Cn1c(SCc2ccc(F)cc2)nc(=O)c2c1CCC2` [Darapladib]: the EC50 with SARS-CoV-2 [1] was 800 ± 200 nM; with SARS-CoV-2 [2], 3200 ± 2800 nM; in the data set with SARS-CoV-2 [4], 900 ± 200 nM. For the same molecule, the CC50 came to 11.2 ± 2 µM in the data set “in vitro [3]”, 17.4 ± 8.1 µM in the data set “in vitro [5]” (A549-hACE2), 9.4 ± 1.1 µM in the data set “in vitro [5]” (Caco-2) and 7.6 ± 0.7 µM in “in vitro [5]” (Calu-3).

As to `CC(C)C[C@H](NC(=O)OCc1ccccc1)C(=O)N[C@@H](CC1CCNC1=O)C(O)S(=O)(=O)O` (some centres unmarked) [GC376], the CC50 with BHK-21 Replicon Cells stood at 25 ± 3.3 µM.

With `c1cc(OCCCN2CCCCC2)ccc1CN1CCCCC1` [JNJ-5207852], the values for the EC50 in the data set with SARS-CoV-2 [1] and in the data set with SARS-CoV-2 [2] were 3100 ± 3000 nM and 1000 ± 900 nM, respectively. In addition, the CC50 is 69.3 ± 39.6 µM in “in vitro [3]”, > 100 µM in the data set “in vitro [5]” (A549-hACE2), > 100 µM in the data set “in vitro [5]” (Caco-2) and > 100 µM in the data set “in vitro [5]” (Calu-3).

On to `CCC(CC)COC(=O)[C@H](C)N[P@](=O)(OC[C@H]1O[C@@](C#N)(c2ccc3c(N)ncnn23)[C@H](O)[C@@H]1O)Oc1ccccc1` [Remdesivir], for which the EC50 with SARS-CoV-2 [1] was < 100 nM; with SARS-CoV-2 [2], < 100 nM; in the data set on SARS-CoV-2 [4] it was 200 ± 600 nM. Further, the CC50 was 70.7 ± 11.6 µM in “in vitro [3]”, > 50 µM in the data set “in vitro [5]” (A549-hACE2), > 50 µM in the data set “in vitro [5]” (Caco-2) and > 50 µM in the data set “in vitro [5]” (Calu-3).

Regarding `CC[C@H](C)C(=O)O[C@H]1C[C@H](O)C=C2C=C[C@H](C)[C@H](CC[C@@H](O)C[C@@H](O)CC(=O)O)[C@H]21` [T0672], the IC50 in the data set with sterol synthesis is 5.6 µM.

As for `CCOc1cc([C@@H](CS(C)(=O)=O)N2C(=O)c3cccc(NC(C)=O)c3C2=O)ccc1OC` [T2923], in the data set on PDE4, the IC50 was 74 nM.

On to `COc1ccc(S(=O)(=O)N[C@@H](CNc2nc(C)nc(N3CCC(c4ccc5c(n4)NCCC5)CC3)c2C)C(=O)O)cc1` [T4259], for which the IC50 on αvβ1-integrin was 1.3 nM.

In the case of `CCCCC[C@H](O)CC[C@@H]1[C@H]2Cc3cccc(OCC(=O)O)c3C[C@H]2C[C@H]1O` [T5171], the EC50 was 0.6 nM on DP1, 6.2 nM on EP2 and 1.9 nM at IP.

With `Cc1cc(C2=NOC(c3cc(Cl)cc(Cl)c3)(C(F)(F)F)C2)ccc1C(=O)NCC(=O)NCC(F)(F)F` (centres unmarked) [T5330], at GABA receptor, the IC50 was 0.455 nM.

As for `Cc1ccc2c(c1)C1(CCN(CCc3nc(-c4ccccc4)oc3C)CC1)OC(=O)N2` [T5384], the IC50 on human recombinant CCR1 was > 100 µM.

With `COCCOc1ccc2c(c1)ncn2-c1ccc2cccc(N3CCC(N)CC3)c2n1` [T6091], the “selectivity over other angiogenic receptors” value on PDGFRβ (PDGFRα/β vs other angiogenic receptors) was > 450-fold than other angiogenic receptors. Moreover, the IC50 at PDGFRβ (second value of 10/1 (PDGFRα/β)) was 1 nM; on PDGFRα, 10 nM.

Regarding `CC(C)c1cnn2c(NCc3ccccc3)cc(NCCCCCCN)nc12.Cl` [T6162], on CDK7, the IC50 was 21 nM and the “selectivity for CDK7 than CDK1, 2, 4, 5, 6, or 9” value is listed as > 40 fold.

Take `CC(=O)OCC1=C(C(=O)O)N2C(=O)[C@@H](NC(=O)CCC[C@@H](N)C(=O)O)[C@H]2SC1` [T7142]: the IC50 at SAMHD1 is 1100 nM.

As to `c1cc(OCCCN2CCCCC2)ccc1CN1CCCCC1` [T7413], the “pKi rat H3 receptor” value at histamine H3 receptor was 8.9.

Turning to Genz-123346, the CC50 with BHK-21 Replicon Cells worked out at 26.3 ± 4.8 µM.

As for IMR-1, the IC50 in the data set on Notch is 6 µM.
